Reference: patent publication US8563599B2, “Methods for synthesizing glycinols, glyceollins I and II, compositions of selected intermediates, and therapeutic uses thereof” (The United States of America, represented by the Secretary …, priority 2008, dated 2013)

Columns and labels:
[1] = system: estrogen receptor (ERE-luciferase) in MCF7 ER-positive cells; assay: ERE-Luciferase assay, estrogenic and antiestrogenic activity; format: cell-based, human
Method: Cell Culture Studies (MCF7 ER-Positive Cells)
Human cancer cell lines derived from breast (MCF7, ER-positive cells) were cultured in 75 ml culture flasks in DMEM (Invitrogen, Co.) supplemented with 10% FBS (Life Technologies, Inc., Gaithersburg, Md.), basic minimum MEM essential (50×, Invitrogen Co.) and MEM non-essential (100×, Invitrogen, Co.) amino acids, sodium pyruvate (100× Invitrogen Co.), antimicotic-antibiotic (10,000 U/mL penicillin G sodium; 10,000 μg/mL streptomycin sulphate; 25 μg/mL amphotericin B as Fungizone®), and human recombinant insulin (4 mg/mL. Invitrogen Co.). The culture flasks were maintained in a tissue culture incubator in a humidified atmosphere of 5% CO2 and 95% air at 37° C. For estrogen studies, cells were washed with PBS 3 times and grown in phenol red-free DMEM supplemented with 5% dextran-coated charcoal-treated FBS (5% CS-FBS) for 72 h before plating for each particular experiment.
Results were then assessed by using an ERE-luciferase assay. The cells were plated in 24 well plates at 5×10^5 cells/well in the same media and allowed to attach overnight. After 18 hours, cells were transfected for 5 h in serum supplemented-free DMEM with […] pGL2-ERE2X-TK-luciferase plasmid, using 6 μl of effectine (Qiagen)/μg of DNA. After 5 h the transfection medium was removed and replaced with phenol red-free DMEM supplemented with 5% CS-FBS containing vehicle, 17β-estradiol, GLY I, or 17β-estradiol plus GLY I, and incubated at 37° C. After 18 h the medium was removed, and 100 μl of lysis buffer was added per well and then incubated for 15 min at room temperature. Cell debris was pelleted by centrifugation at 15000×g for 5 min. cell extracts were normalized for protein concentration using reagent according to the protocol supplied by the manufacturer (Bio-Rad Laboratories, Inc., Hercules, Calif.). Luciferase activity for the cell extracts was determined using Luciferase substrate (Promega Corp.) in an Autoluminat Plus luminometer.

[2] = target: T1, hrER-α (alpha estrogen receptor) (Homo sapiens, UniProt P03372); assay: ER-α competition binding assay (fluorescence anisotropy, ES2 displacement); conditions: ERα/ES2 complex, 2 h room temperature, FIG. 9; read-out: IC50 for 50% inhibition of a standard's binding with the alpha estrogen receptor (ER-α)
T1 sequence (P03372 1-595): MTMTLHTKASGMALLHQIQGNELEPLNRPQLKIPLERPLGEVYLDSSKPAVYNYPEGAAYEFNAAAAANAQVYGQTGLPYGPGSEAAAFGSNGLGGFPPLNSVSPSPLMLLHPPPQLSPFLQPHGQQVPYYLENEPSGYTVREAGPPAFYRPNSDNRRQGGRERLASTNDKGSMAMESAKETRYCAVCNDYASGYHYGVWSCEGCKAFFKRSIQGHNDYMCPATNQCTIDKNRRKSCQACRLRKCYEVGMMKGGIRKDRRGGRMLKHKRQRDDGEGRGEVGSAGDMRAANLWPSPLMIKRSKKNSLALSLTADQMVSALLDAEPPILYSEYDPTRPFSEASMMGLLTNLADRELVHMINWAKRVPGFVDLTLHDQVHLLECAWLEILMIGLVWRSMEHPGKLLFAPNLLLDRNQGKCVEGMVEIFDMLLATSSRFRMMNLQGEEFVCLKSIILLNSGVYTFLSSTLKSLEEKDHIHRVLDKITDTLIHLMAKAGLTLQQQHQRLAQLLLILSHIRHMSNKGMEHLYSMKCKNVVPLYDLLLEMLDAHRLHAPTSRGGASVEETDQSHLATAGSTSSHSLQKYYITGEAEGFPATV
Method: This example illustrates how the biological data pertaining to interaction of the compounds with the alpha-estrogen receptors was obtained.
A 200 μM working stock solution of GLY I was prepared from an original 10 mM DMSO stock solution. The working stock solution was serially diluted in triplicate in screening buffer to the desired concentrations. hrER-α and ES2 were added to a final concentration of 2 nM and 3 nM, respectively. Negative (ER+ES2, equivalent to 0% inhibition) and positive (free ES2, equivalent to 100% inhibition) controls in the absence of competitor were measured in duplicate. After 2 h at room temperature, the anisotropy values in each tube were measured using the Beacon 2000 system CO. The anisotropy values were converted to percent inhibition using the following formula: I%=(A0−A)/(A0−A100)×100, where I% is the percent inhibition, A0 is 0% inhibition, A100 is 100% inhibition, and A represents the observed value. Polarization values were converted to percent inhibition to make the data more intuitive to the reader and to normalize the day-to-day differences in the starting 0% inhibition polarization values. The percent inhibition versus competitor concentration curves were analyzed by nonlinear least-squares curve fitting and yielded an IC50 value (the concentration of competitor needed to displace half of the bound ligand). To compare binding affinities of the test compounds to those reported in the literature, IC50 values were converted to relative binding affinities (RBA) using E2 as a standard. The E2 RBA was set equal to 100 […].

[3] = pH stability study by HPLC; format: physicochemical
Description: This instability could derive by formation of a quinone-methide from the now unprotected ‘Southern’ ring's phenolic hydroxyl-group. Thus, mildly acidic reagents that might be used for de-protection were explored. In the end, NEt3.3 HF (see, e.g., L. D. Julian, J. S. Newcom, W. R. Roush, J. Am. Chem. Soc. 2005, 127, 6186-6187, which is hereby incorporated by reference in its entirety), which provides a pH in the range of 4-5 when run on the 0.1 mmole scale in anhydrous acetonitrile, was most successfully utilized for this transformation. Even with this approach, however, it is important to adjust the pH of the post-reaction medium (as readily followed by TLC) to pH 7-8 by addition of triethylamine so as to avoid decomposition during subsequent workup. Final compounds are obtained in the range of ca. 65-70% yields. Assignment of stereochemistry for these final materials can be accomplished with NMR and CD. In addition, at this point it is convenient to take advantage of chiral HPLC wherein authentic materials from natural sources can be used as standards along with the synthesized racemic materials.

CC1(C)C=Cc2c(ccc3c2OCC2(O)c4ccc(O)cc4OC32)O1 (racemic) [racemic (±)-GLY I, (+) Glyceollin I (Racemic Glyceollin I)]
anti-estrogenic activity (ERE-Luciferase) ([1]; at 10 μM, E2 at 100 pM): strong anti-estrogenic activity
estrogenic activity (ERE-Luciferase) ([1]; concentration not given): no significant estrogenic activity
IC50 [2]: 1400 nM
stability of ring system (HPLC) ([3]; acidic pH as low as 4): reasonable stability
stability of ring system (HPLC) ([3]; basic pH above 8): not stable
